Like-named read-outs stand apart in the source and are kept apart here.
Experiments:
Format in all cases: cell-based
[1] = test system: a collection of yeasts; settings: pH 3.5
Procedure: Cultures were grown in GPY-broth that contained per liter demineralised-water: 40 g glucose, 5 g peptone and 5 g yeast extract, the pH of the medium to 3.5 with 2 N HCl. Cultures were grown in screw-capped tubes for at least 48 hours at 25° C. Pichia membranifaciens MUCL 27794, CBS 8427 and CBS 5567, Rhodotorula glutinis CBS 2367, Rhodotorula mucilaginosa CBS 8054 and CBS 2401 and Zygosaccharomyces bailii MUCL 27812 were cultured in shake flasks
The inhibition tests were carried out in sterile 96-well microtiter plates. Increasing amounts (0 to 100 μL in 10 steps of 10 μL) of a sterile stock solution of each compound were transferred to sterile microtiter plates. Next 100 μL of filter sterilized double strength GPY-broth was added and the volume of each well was adjusted to 200 μL with sterile demineralized-water. Plates were inoculated with 2 μL of two days old cultures and incubated for 96 hours at 25° C. Growth was quantified by measuring the optical density at 595 nm in a microplate reader. All the experiments were carried out in duplicate.

[2] = test system: Saccharomyces cerevisiae; assay: Screening of combinations of three ingredients, outgrowth in GPY-broth pH 3.5
Procedure: These combination tests were also carried out in sterile 96-well microtiter plates. Sterile GPY-broth was prepared with increasing quantities of inhibitors. For the first dimension the concentrations of the first inhibitor was presented in 8 equal concentration steps. For the second dimension a fixed ratio of two other inhibitors was chosen. This mixture was presented in 8 equal concentration steps resulting in 64 different media. […] of each medium was transferred to a panel of a sterile 96-well microtiter plate. Completed well plates were stored at 4° C. until further use. Plates were inoculated with 2 μL of two days old cultures and incubated for 96 hours at 25° C. Growth was quantified by measuring the optical density at 595 nm in a microplate reader and expressed as a percentage of the growth in the control, which contained no inhibitor. All the experiments were carried out in duplicate.

[3] = test system: Schizosaccharomyces pombe; assay: Screening of combinations of two inhibitors, outgrowth in GPY-broth pH 3.5
Procedure: These combination tests were carried out in sterile 96-well microtiter plates. Sterile GPY-broth was prepared with increasing quantities of two different inhibitors. The concentrations of each inhibitor were presented in 8 equal concentration steps that ranged from 0 to 1-2 times the MIC value of a particular yeast for a particular inhibitor resulting in 64 different media. […] of each medium was transferred to a panel of a sterile 96-well microtiter plate. Completed well plates were stored at 4° C. until further use.
Plates were inoculated with 2 μL of two days old cultures and incubated for 96 hours at 25° C. Growth was quantified by measuring the optical density at 595 nm in a microplate reader and expressed as a percentage of the growth in the control, which contained no inhibitor. All the experiments were carried out in duplicate.

Q: Which results are given for `O=C(O)C=Cc1ccccc1` [Cinnamic acid, cinnamic acid]?
A: Comparison of inhibitory potency (in words) ([1]; MIC values of a number of yeasts): more effective than sorbic acid; MICavg (Average Minimal Inhibitory Concentration) ([1]; collection of yeasts): 0.009 ± 0.007 % w/v; MICmax (Maximum MIC) ([1]; collection of yeasts): 0.03 % w/v; MICmax/MICavg ([1]; collection of yeasts): 3.0; Outgrowth (% of outgrowth at zero concentration inhibitor) ([2]; MCE 8060-ε-polylysine mixture (ratio 18.9) 0, cinnamic acid 0.002 (% w/v)): 76%; Outgrowth (% of outgrowth at zero concentration inhibitor) ([2]; MCE 8060-ε-polylysine mixture (ratio 18.9) 0, cinnamic acid 0.004 (% w/v)): 44%; Outgrowth (% of outgrowth at zero concentration inhibitor) ([2]; MCE 8060-ε-polylysine mixture (ratio 18.9) 0, cinnamic acid 0.006 (% w/v)): 1%; Outgrowth (% of outgrowth at zero concentration inhibitor) ([2]; MCE 8060-ε-polylysine mixture (ratio 18.9) 0, cinnamic acid 0.008 (% w/v)): 0%; Outgrowth (% of outgrowth at zero concentration inhibitor) ([2]; MCE 8060-ε-polylysine mixture (ratio 18.9) 0, cinnamic acid 0.01 (% w/v)): 2%; Outgrowth (% of outgrowth at zero concentration inhibitor) ([2]; MCE 8060-ε-polylysine mixture (ratio 18.9) 0, cinnamic acid 0.012 (% w/v)): 1%; Outgrowth (% of outgrowth at zero concentration inhibitor) ([2]; MCE 8060-ε-polylysine mixture (ratio 18.9) 0, cinnamic acid 0.014 (% w/v)): 0%

Q: `C/C=C/C=C/C(=O)[O-].[K+]` [Potassium sorbate, potassium sorbate] was tested. Which “Outgrowth (% of outgrowth at zero concentration inhibitor)” value ([3]; ε-polylysine 0, potassium sorbate 0.007 (% w/v)) did it give?
A: Its value is 81%.

Q: What about the “Outgrowth (% of outgrowth at zero concentration inhibitor)” value ([3]; ε-polylysine 0, potassium sorbate 0.014 (% w/v)) of the same compound?
A: The value was 69%.

Q: And the “Outgrowth (% of outgrowth at zero concentration inhibitor)” value ([3]; ε-polylysine 0, potassium sorbate 0.021 (% w/v))?
A: Its value is 56%.

Q: And the “Outgrowth (% of outgrowth at zero concentration inhibitor)” value ([3]; ε-polylysine 0, potassium sorbate 0.028 (% w/v))?
A: Its value is 44%.

Q: And the “Outgrowth (% of outgrowth at zero concentration inhibitor)” value ([3]; ε-polylysine 0, potassium sorbate 0.035 (% w/v))?
A: The value was 30%.

Q: What about the “Outgrowth (% of outgrowth at zero concentration inhibitor)” value ([3]; ε-polylysine 0, potassium sorbate 0.042 (% w/v)) of the same compound?
A: The value was 20%.

Q: What about the “Outgrowth (% of outgrowth at zero concentration inhibitor)” value ([3]; ε-polylysine 0, potassium sorbate 0.049 (% w/v)) of the same compound?
A: Its value is 7%.

Q: With `C/C=C/C=C/C(=O)O` [Sorbic acid] as the compound, how does the “MICavg (Average Minimal Inhibitory Concentration)” value [1] read?
A: The value was 0.030 ± 0.020 % w/v.

Q: What about the “MICmax (Maximum MIC)” value [1] of the same compound?
A: Its value is 0.07 % w/v.

Q: And the MICmax/MICavg [1]?
A: The MICmax/MICavg was 2.5.

Reference: patent US20090074926A1, “Preservation of acidic beverages” (PURAC BIOCHEM B.V., priority 2007, published 2009)
